{"source": "patent US8835644B2", "about": "“Broad spectrum benzothiophene-nitrothiazolide and other antimicrobials” (University of Virginia Patent Foundation, priority 2009, dated 2014)", "key": {"[1]": {"test_system": "PFOR (pyruvate ferredoxin oxidoreductase)", "experiment": "Direct PFOR enzyme assay", "format": "biochemical", "conditions": "Furan analogues table", "experimental": "(§1) Representative compounds of the invention were tested in a series of assays against a series of organisms as described above. […] The organisms tested include, C. difficile, H. pylori, C. jejuni, MRSA, S. epidermidis, and E. coli. S. epidermidis and E. coli were tested in the plank and biofilm assay. A disk diffusion assay was also used for C. difficile. Direct PFOR enzyme assays were also performed. All analogues and derivatives were not tested on every organism in every type of assay (the “-” in each table means that it was not tested)."}, "[2]": {"test_system": "H. pylori", "experiment": "MIC testing by broth dilution, H. pylori", "format": "cell-based, Helicobacter pylori", "outline": "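Broth dilution MIC determination against H. pylori: a standard inoculum in 100 microliters of Brain Heart Infusion medium was placed in 96 well microplates. Test compounds began at 32 μg/ml in 200 microliters in well one and were serially diluted over a 32 to 0.06 range. After 24 h, plates were scored by eye and the first well without growth was recorded as the MIC.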"}, "[3]": {"test_system": "MRSA", "experiment": "MIC testing by broth dilution, MRSA", "format": "cell-based, Staphylococcus aureus", "outline": "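Values are broth-dilution MICs, defined as the well showing no growth on visual reading after 24 h; the tested range was 32 to 0.06 μg/ml, in organism-specific media (LB, Trypticase Soy, Brain Heart Infusion). The C. difficile entries come instead from anaerobic Kirby-Bauer disk zones, normalised to NTZ.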"}, "[4]": {"test_system": "S. epidermidis", "experiment": "MIC testing by broth dilution, S. epidermidis plank", "format": "cell-based, Staphylococcus epidermidis", "outline": "(§2)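 Media: LB (E. coli), Trypticase Soy (S. epidermidis), BHI (C. jejuni); plank cells. C. difficile on Wilkins Chalgrin agar, anaerobic Kirby-Bauer disks, zone vs NTZ zone ratio.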"}, "[5]": {"test_system": "C. jejuni", "experiment": "MIC testing by broth dilution, C. jejuni", "format": "cell-based, Campylobacter jejuni", "outline": "as §2"}, "[6]": {"test_system": "C. difficile", "experiment": "Disk diffusion (Kirby Bower), C. difficile", "format": "cell-based, Clostridium difficile", "experimental": "(§3) A standard broth dilution protocol was used in 96 well microplates containing a standard dilution of the microorganism to be tested in 100 microliters of the appropriate medium. Appropriate medium: E. coli, LB medium; Staphylococcus strains, Trypticase Soy; and for H. pylori and C. jejuni, Brain Heart Infusion. The compounds to be tested were set at 32 μg/ml in 200 microliters in well one and then serially diluted to provide a range from 32 to 0.06. The wells were scored visually at 24 h. The well where there was no growth was recorded as the MIC. Clostridium difficile was tested by agar diffusion and disk diffusion (Kirby Bower) methods under anaerobic conditions on Wilkins Chalgrin agar. In these assays, zone of inhibited growth was measured and compared by relative ratio to the zone recorded for NTZ.\nas §1"}, "[7]": {"test_system": "E. coli biofilm", "experiment": "E. coli biofilm assay (activity tables)", "format": "cell-based, Escherichia coli", "conditions": "biofilm", "experimental": "A quantitative biofilm assay was used to determine the effect of NTZ on biofilm formation (41). Strain 042 was grown overnight at 37° C. with shaking and inoculated 1:100 in 200 μl culture medium in Costar 96-well, flat-bottom, polystyrene microtiter plates containing appropriate concentrations of NTZ. Plates were incubated statically at 37° C. in a humidified incubator. At 24 h, bacterial growth was measured by either transferring […] aliquots to another microtiter plate to determine turbidity or by diluting 100 μl aliquots 1:100 in 9.9 ml PBS for quantitative plate counts on LB medium. Bacterial counts in triplicate are reported as cfu/ml. Biofilm was visualized following staining with 0.5% crystal violet (41) and the absorbance was read at 570 nm using a microplate reader (Molecular Dynamics). All experiments were in triplicate and reported as mean and standard deviation.\nas §3, §1"}, "[8]": {"test_system": "S. epidermidis biofilm", "experiment": "S. epidermidis biofilm assay (activity tables)", "format": "cell-based, Staphylococcus epidermidis", "conditions": "for MIC S. epidermidis Biofilm: Furan analogues table", "experimental": "Staphylococcal strains were cultured overnight in TSB at 37° C. with shaking, diluted in fresh medium to an OD600 of 0.01 and 200 W was dispensed into sterile flat bottom polystyrene 96 well microtiter plates (Costar 3596, Corning Inc.). […] Each compound and dilution was tested in triplicate. The plates were incubated overnight at 37° C. in a humidified incubator, without shaking and both growth and biofilm accumulation were determined at 16 h.\nFollowing recording of turbidities, the culture medium was aspirated and the wells were washed three times with distilled water, blotted on paper towels, and fixed with 75% ethanol for 10 minutes.\nTo visualize biofilm material, 0.5% crystal violet was added to each well and after 5 minutes was removed and the wells washed three times with distilled water. Plates were read using a microplate reader at a wavelength of 570 nm. The dye was then extracted by adding 200 W of 95% ethanol, and the absorbance was read again at 570 nm. All assays were performed in triplicate and the mean and standard deviation determined. […]\nas §1"}, "[9]": {"test_system": "E. coli", "experiment": "MIC testing by broth dilution, E. coli plank", "format": "cell-based, Escherichia coli", "outline": "as §2"}, "[10]": {"conditions": "Furan analogues table, read-out: MIC H. pylori"}, "[11]": {"conditions": "Furan analogues table, read-out: MIC MRSA"}, "[12]": {"conditions": "planktonic, Furan analogues table, read-out: MIC S. epidermidis Plank"}, "[13]": {"conditions": "Furan analogues table, read-out: MIC C. jejuni"}, "[14]": {"conditions": "read-out: MIC (μM) E. coli Biofilm"}, "[15]": {"conditions": "broth dilution, Brain Heart Infusion, 24 h, read-out: MIC (μM) H. pylori"}, "[16]": {"conditions": "broth dilution, Trypticase Soy, 24 h, read-out: MIC (μM) MRSA"}, "[17]": {"conditions": "broth dilution, Trypticase Soy, 24 h, read-out: MIC (μM) S. epidermidis Plank"}, "[18]": {"conditions": "broth dilution, LB medium, 24 h, read-out: MIC (μM) E. coli Plank"}, "[19]": {"conditions": "broth dilution, Brain Heart Infusion, 24 h, read-out: MIC (μM) C. jejuni"}, "[20]": {"conditions": "Furan analogues table, read-out: MIC E. coli Biofilm"}, "[21]": {"conditions": "planktonic, Furan analogues table, read-out: MIC E. coli Plank"}}, "note": "Where two headings read alike, the source gives them in different places.", "data": [{"smiles": "O=C(Nc1ncc([N+](=O)[O-])s1)c1ccc(-c2ccc(F)cc2)o1", "note": "[VPC16a1104]", "values": [{"measurement": "PFOR inhibition relative to nitazoxanide (=100)", "setting": "[1]", "value": 81, "unit": "%"}, {"measurement": "MIC", "setting": "[2]; [10]", "value": 1.0, "unit": "µM"}, {"measurement": "MIC", "setting": "[3]; [11]", "value": 96.0, "unit": "µM"}, {"measurement": "MIC", "setting": "[4]; [12]", "value": 96.0, "unit": "µM"}, {"measurement": "MIC", "setting": "[5]; [13]", "value": 96.0, "unit": "µM"}]}, {"smiles": "CCCCCCCC(=O)Nc1ncc([N+](=O)[O-])s1", "note": "[VPC16b1046]", "values": [{"measurement": "Disk Diffusion (%) C. difficile", "setting": "[6]; zone of inhibited growth as relative ratio to the zone for NTZ", "value": "54 ± 4", "unit": "%"}, {"measurement": "MIC", "setting": "[7]; [14]", "value": 88.4, "unit": "µM"}, {"measurement": "MIC", "setting": "[2]; [15]", "value": 0.8, "unit": "µM"}, {"measurement": "MIC (μM) S. epidermidis Biofilm", "setting": "[8]", "value": 7.4, "unit": "µM"}, {"measurement": "MIC", "setting": "[3]; [16]", "value": 59.0, "unit": "µM"}, {"measurement": "MIC", "setting": "[4]; [17]", "value": 11.1, "unit": "µM"}, {"measurement": "MIC", "setting": "[9]; [18]", "value": 117.9, "unit": "µM"}, {"measurement": "MIC", "setting": "[5]; [19]", "value": 106.9, "unit": "µM"}]}, {"smiles": "O=C(Nc1ncc([N+](=O)[O-])s1)c1ccccc1C(F)(F)F", "note": "[VPC161182]", "values": [{"measurement": "MIC", "setting": "[7]; [14]", "value": 100.9, "unit": "µM"}, {"measurement": "MIC", "setting": "[2]; [15]", "value": 1.6, "unit": "µM"}, {"measurement": "MIC (μM) S. epidermidis Biofilm", "setting": "[8]", "value": 50.4, "unit": "µM"}, {"measurement": "MIC", "setting": "[3]; [16]", "value": 25.2, "unit": "µM"}, {"measurement": "MIC", "setting": "[4]; [17]", "value": 25.2, "unit": "µM"}, {"measurement": "MIC", "setting": "[9]; [18]", "value": 100.9, "unit": "µM"}, {"measurement": "MIC", "setting": "[5]; [19]", "value": 18.9, "unit": "µM"}]}, {"smiles": "O=C(Nc1ncc([N+](=O)[O-])s1)c1ccc(-c2ccc([N+](=O)[O-])cc2)o1", "note": "[VPC161189]", "values": [{"measurement": "MIC", "setting": "[7]; [20]", "value": 88.8, "unit": "µM"}, {"measurement": "MIC", "setting": "[2]; [10]", "value": 6.9, "unit": "µM"}, {"measurement": "MIC S. epidermidis Biofilm", "setting": "[8]", "value": 11.1, "unit": "µM"}, {"measurement": "MIC", "setting": "[3]; [11]", "value": 88.8, "unit": "µM"}, {"measurement": "MIC", "setting": "[4]; [12]", "value": 11.1, "unit": "µM"}, {"measurement": "MIC", "setting": "[9]; [21]", "value": 88.8, "unit": "µM"}, {"measurement": "MIC", "setting": "[5]; [13]", "value": 16.7, "unit": "µM"}]}, {"smiles": "O=C(Nc1ncc([N+](=O)[O-])s1)c1ccc(-c2cccc([N+](=O)[O-])c2)o1", "note": "[VPC161190]", "values": [{"measurement": "MIC", "setting": "[7]; [20]", "value": 88.8, "unit": "µM"}, {"measurement": "MIC", "setting": "[2]; [10]", "value": 6.9, "unit": "µM"}, {"measurement": "MIC S. epidermidis Biofilm", "setting": "[8]", "value": 11.1, "unit": "µM"}, {"measurement": "MIC", "setting": "[3]; [11]", "value": 44.4, "unit": "µM"}, {"measurement": "MIC", "setting": "[4]; [12]", "value": 11.1, "unit": "µM"}, {"measurement": "MIC", "setting": "[9]; [21]", "value": 88.8, "unit": "µM"}, {"measurement": "MIC", "setting": "[5]; [13]", "value": 16.7, "unit": "µM"}]}, {"smiles": "COc1ccccc1C(=O)Nc1ncc([N+](=O)[O-])s1", "note": "[VPC161192]", "values": [{"measurement": "MIC", "setting": "[7]; [14]", "value": 57.3, "unit": "µM"}, {"measurement": "MIC", "setting": "[2]; [15]", "value": 1.8, "unit": "µM"}, {"measurement": "MIC (μM) S. epidermidis Biofilm", "setting": "[8]", "value": 114.6, "unit": "µM"}, {"measurement": "MIC", "setting": "[3]; [16]", "value": 114.6, "unit": "µM"}, {"measurement": "MIC", "setting": "[4]; [17]", "value": 114.6, "unit": "µM"}, {"measurement": "MIC", "setting": "[9]; [18]", "value": 114.6, "unit": "µM"}, {"measurement": "MIC", "setting": "[5]; [19]", "value": 17.9, "unit": "µM"}]}, {"smiles": "O=C(Nc1ncc([N+](=O)[O-])s1)c1ccc(-c2ccccc2C(F)(F)F)o1", "note": "[VPC161196, N-(5-Nitrothiazol-2-yl)-5-(2-(trifluoromethyl)phenyl)furan-2-carboxamide]", "values": [{"measurement": "Disk Diff (%) C. difficile", "setting": "[6]; Nitazoxanide = 100, Furan analogues table", "value": "70.5 ± 0.5", "unit": "%"}, {"measurement": "MIC", "setting": "[7]; Escherichia coli, Furan analogues table, read-out: MIC E. coli Biofilm", "value": 90.8, "unit": "µM"}, {"measurement": "MIC", "setting": "[2]; Helicobacter pylori, Furan analogues table, read-out: MIC H. pylori", "value": 1.1, "unit": "µM"}, {"measurement": "MIC S. epidermidis Biofilm", "setting": "[8]", "value": 5.7, "unit": "µM"}, {"measurement": "MIC", "setting": "[3]; Staphylococcus aureus, MRSA, Furan analogues table, read-out: MIC MRSA", "value": 2.8, "unit": "µM"}, {"measurement": "MIC", "setting": "[4]; Staphylococcus epidermidis, planktonic, Furan analogues table, read-out: MIC S. epidermidis Plank", "value": 5.7, "unit": "µM"}, {"measurement": "MIC", "setting": "[9]; Escherichia coli, planktonic, Furan analogues table, read-out: MIC E. coli Plank", "value": 90.8, "unit": "µM"}, {"measurement": "MIC", "setting": "[5]; Campylobacter jejuni, Furan analogues table, read-out: MIC C. jejuni", "value": 8.5, "unit": "µM"}]}]}
